# From ChEMBL document CHEMBL3507680, “University of Dundee, Gates Library screen for HepG2 cell viability”
# Assay: Human HepG2 cell viability assay in 384 well format
# Type: toxicity, cell-based
# Design: dose 125 nL, time 70.5 hour; concentration not given beside the values
# Conditions: HepG2 cells, read-out: Inhibition
row,SMILES,cytotoxicity at 70.5 h [%]
1,CC(=O)N1CCc2c(nc(-c3cccnc3)nc2N(C)CC(O)CO)C1 (configuration not stated),-6.57
2,COC[C@H]1CN(CC2CC2)C(=O)[C@@H]2CCN(Cc3ccoc3)CC[C@H]12,-4.84
3,c1ccc(CO[C@H]2CN(c3ncccn3)C[C@@]23CCCO3)cc1,-11.5
4,CC(Cn1cccn1)NC(=O)Cc1cccs1 (configuration not stated),-6.09
5,CN(CCc1ccccc1)c1cnn(CC2COCCO2)c(=O)c1 (configuration not stated),-4.1
6,CCn1c(CN2CCCC2)nnc1C1CCN(Cc2cccnc2)CC1,19.5
7,Cc1ccc(-c2cc(CNC(=O)N3CCC(N(C)C)CC3)on2)cc1,4.4
8,Cn1cc(CN2C[C@@H](N3CCCC3=O)[C@H]3OCCC[C@H]32)cn1,-3.55
9,Cc1ccc2oc(SCC(=O)NC(C)(C)C)nc2n1,-6.39
10,CC(=O)N1N=C(c2ccco2)OC1C(=O)NCCc1ccc(F)cc1 (configuration not stated),0.102
11,CCCNC(=O)CCNC(=O)c1ccccc1N1CCOCC1,-4.62
12,Cc1ccsc1C(=O)N1CCCc2c(c(=O)n(C)n2C)C1,-11
13,OCCN1CCC(CNCc2cn(-c3ccccc3)nn2)CC1,-12.5
14,Cc1cc(C2CCC2)nc(NCC(C)(C)CO)n1,-2.23
15,N#Cc1ccc(CN(CC(N)=O)Cc2cccc(F)c2)cc1,-2.99
16,O=C(CC1Cn2ncnc2NC1=O)Nc1cccc(C(F)(F)F)c1 (configuration not stated),-11.2
17,COc1cccc(CCCn2cnnc2[S+](C)[O-])c1 (configuration not stated),-7.37
18,COC(=O)CNC(=O)Cn1ccc2cccc(OC)c21,7.12
19,CCS(=O)(=O)c1ccccc1N1CCC(NC(=O)NC2CCCC2)CC1,-14.2
20,CC(C)(C)CCN1CCC(c2nnc(Cn3cccn3)n2C2CC2)CC1,-9.38
21,Cc1ccc(C(=O)CN(C2=NCCCCC2)c2ccccc2)cc1,-23.6

row,SMILES,cytotoxicity at 70.5 h [%]
1,Cc1ccc(C2(CN(C)Cc3snnc3C)CCNCC2)nc1,-1.57
2,Cc1cccnc1NC(=O)CC1(Cn2cnnn2)CCCCC1,-7.45
3,CCc1nc(CN2CCCN(c3cnc4ccccc4n3)CC2)no1,-2.11
4,CCOc1ccnc(N2CCN(CCOC)CC2)n1,-5.63
5,CC(C)NC(=O)N1C[C@H](OCc2cccnc2)[C@H]2COC[C@H]21,0.936
6,CCn1cnnc1CCNC(=O)C(C)(C)c1cccc(Cl)c1,-7.37
7,O=C(NCc1cccnc1)[C@@H]1CC[C@@H]2[C@@H](CCN2c2ncccn2)O1,15.1
8,CN1CC2(CCCN(C(=O)Cc3cccc(O)c3)C2)OC1=O (configuration not stated),-6.74
9,CN(C)CCN1C(=O)C[C@@H]2[C@@H]1CCN2S(=O)(=O)c1ccccc1,-12.7
10,CC1=C(C#N)C(=O)NC(=O)/C1=C\c1c(C)nn(-c2ccccc2)c1O,-2.78
11,CC(C)CC(N)C1=N/C(=C2\N=CN=N2)NO1 (configuration not stated),29.4
12,CC(=O)N[C@@H]1CN(C(=O)c2ccncc2)C[C@H]1c1ccc(C)cc1,-3.8
13,O=C(NC1CC1)[C@H]1C[C@@H]2CCN(CCc3ccccc3)C[C@H]2O1,-11.8
14,CCNc1cc2c(nn1)CCN(C(=O)Cc1c(C)noc1C)C2,4.3
15,CC(C)NC(=O)Cn1cc(OCc2ccc(F)cc2)c(=O)cc1CO,-4.49
16,O=C(NCc1ccccn1)[C@]12COC[C@H]1CN(C1CCC1)C2,-10.3
17,O=S(=O)(NC1=NCN(CCc2cccs2)CN1)c1ccc(F)cc1,-20.8
18,CC(C(=O)N1CCCN(c2ccc(C#N)cc2)CC1)n1cccn1 (configuration not stated),-3.9
19,CNc1ccnc(N2C[C@@H](C)[C@](O)(C3CCC3)C2)n1,26
20,O=C(NS(=O)(=O)c1cccc(F)c1)c1ccccc1F,13.1
21,CC(C)c1nc(C2CCCN2C(=O)c2ccc(C#N)cn2)no1 (configuration not stated),1.98

row,SMILES,cytotoxicity at 70.5 h [%]
1,CNC(=O)CN(C)C(=O)c1cc2ccccc2cc1OC,-17.8
2,CC(NC1(CNC(=O)Cn2cccn2)CCOCC1)c1ccccc1 (configuration not stated),-6.45
3,c1cnn(C2CN(c3nc(-c4ccncc4)nc4c3CCC4)C2)c1,-1.27
4,COc1ccccc1C(O)CNC(=O)Nc1cccnc1OC (configuration not stated),-3.1
5,O=C(NCCNc1ncccn1)C1CC(=O)N(CC(F)(F)F)C1 (configuration not stated),-14.3
6,OCC1CCCN1c1cc(NCc2ccsc2)ncn1 (configuration not stated),1.84
7,COCCC(=O)NCCc1nc(N(C)C)ncc1-c1ccncc1,-3.62
8,CCN1CCOC(CNc2nccc(C(F)(F)F)n2)C1 (configuration not stated),-6.79
9,CCO[C@@H]1CC[C@H]2[C@H]1OCCN2Cc1ccoc1,-1.39
10,Cc1ccccc1COCCOCn1c(C)cc(=O)[nH]c1=O,-4.1
11,Cc1ccc(OCC(C)NS(C)(=O)=O)cc1C (configuration not stated),-3.53
12,CC(C)(C)c1nnc(CN(Cc2cccs2)CC2CCCO2)o1 (configuration not stated),-1.38
13,CCOc1ccccc1CNC(=O)N(CC)C(C)c1cccnc1 (configuration not stated),-6.76
14,Cc1ccc(=O)n(CC2(O)CCN(Cc3cnc(C)nc3)CC2)n1,-10.4
15,COCCc1noc(CN(C)c2nccc(C)n2)n1,-6.87
16,Cc1cc(CN2C[C@@H]3CN(Cc4ccsc4)CCO[C@@H]3C2)no1,7.7
17,Cc1nn(CCN2CCSCC2)cc1CNCC1CC1,-14.6
18,c1ccc2oc(NC3CCCN(Cc4noc(C5CC5)n4)C3)nc2c1 (configuration not stated),-10.4
19,CCCc1cc(=O)[nH]c(-c2ccccc2CN(C)CCC(C)C)n1,18.2
20,O=C(NC1CC1)c1cc(Cl)ccc1-n1cnnn1,-6.19
21,CCc1cc(N(C)Cc2nonc2C)nc(N(C)C)n1,7.36

row,SMILES,cytotoxicity at 70.5 h [%]
1,CC(Cn1cccn1)NC(=O)NCCc1cccnc1 (configuration not stated),-8.85
2,CN1C[C@@H]2CN(Cc3ccsc3)CCC[C@]2(C(=O)O)C1,-2.55
3,O=C1[C@@H]2CCN(CC3CC3)C[C@@H]2OCCN1c1ccsc1,-2.56
4,CC(C)(C)c1cc(CN2CCOC(CCc3ccccc3)C2)n[nH]1 (configuration not stated),-9.92
5,O=S(=O)(NC1CCC2(CC1)OCCO2)c1ccccc1Br,-1.96
6,Cc1nc(C2CCCN2C(=O)Cc2ccc(F)cc2)nc(O)c1C (configuration not stated),2.83
7,NC1(CN2CCOCC2)CCCCC1,-2.02
8,Cc1ccc(F)c(C(=O)N2CCC(Nc3ccc(C)nn3)CC2)c1,-2.35
9,CC(=O)Nc1nc(C(=O)N2CCCC(c3cc(C)[nH]n3)C2)cs1 (configuration not stated),-0.899
10,CNC(=O)C(C)(C)N1CCC[C@H]1C(=O)NC1CCCC1,-0.301
11,Cc1ccc(C#N)c(N2CCC(c3nccn3CCN(C)C)CC2)n1,-7.04
12,CC(C)n1cc(CN2CCCN(C(=O)c3nccnc3N)CC2)cn1,7.08
13,O=C(NCc1cncc2c1CCN(C1CCOC1)C2)c1ccco1 (configuration not stated),-2.1
14,Cn1nc(C(=O)N2CCOCC2)cc1C(=O)Nc1ccc(Cl)cc1Cl,-2.86
15,Cn1cnnc1CNC(=O)C1CCCN(Cc2ccccc2)C1 (configuration not stated),0.292
16,COc1ccccc1CC(=O)NS(=O)(=O)c1cncc(Br)c1,4.46
17,CCN1CCC(NC(=O)CN2CCCC(NS(C)(=O)=O)C2)CC1 (configuration not stated),-10.1
18,Cc1cc(NC(=O)CCN2CCCC2Cn2cncn2)no1 (configuration not stated),1.41
19,c1ccc(CN2CCc3ncnc(-c4ccsc4)c3CC2)nc1,-12.4
